Assay results reported in ChEMBL document CHEMBL1144808 (J Med Chem, 2008).
pIC50: −log10 of the molar value. Values after ≈ are worked out from the molar mass of the structure shown.

Experiments:
[1] = tested on: NCI-H460; assay: Cytotoxicity against human H460 cells under normoxic condition after 2 hrs by Alamar blue staining assay; format: functional, cell-based; settings: NCI-H460, 2 h
[2] = tested on: HT-29; assay: Cytotoxicity against human HT29 cells under hypoxic condition after 2 hrs by clonogenic assay; format: functional; settings: HT-29, 2 h
[3] = tested on: NCI-H460; assay: Ratio of IC50 for human H460 cells under normoxic condition to hypoxic condition by clonogenic assay; format: functional
[4] = tested on: NCI-H460; assay: Cytotoxicity against human H460 cells under hypoxic condition after 2 hrs by clonogenic assay; format: functional; settings: NCI-H460, 2 h
[5] = tested on: NCI-H460; assay: Cytotoxicity against human H460 cells under hypoxic condition after 2 hrs by Alamar blue staining assay; format: functional, cell-based; settings: NCI-H460, 2 h
[6] = Toxicity against human MIAPaCa2-RFP cells xenografted mouse; format: organism-based
[7] = tested on: NCI-H460; assay: Ratio of IC50 for human H460 cells under normoxic condition to hypoxic condition by Alamar blue staining assay; format: functional
[8] = tested on: HT-29; assay: Cytotoxicity against human HT29 cells under normoxic condition after 2 hrs by clonogenic assay; format: functional; settings: HT-29, 2 h
[9] = Aqueous solubility at 100 mg at pH 7.4; format: physicochemical
[10] = tested on: NCI-H460; assay: Cytotoxicity against human H460 cells under normoxic condition after 2 hrs by clonogenic assay; format: functional; settings: NCI-H460, 2 h
[11] = Metabolic stability in mouse liver microsomes at 5 uM after 30 mins; format: ADME, Microsome; settings: read-out: Stability
[12] = tested on: HT-29; assay: Ratio of IC50 for human HT29 cells under normoxic condition to hypoxic condition by clonogenic assay; format: functional
[13] = tested on: Mus musculus; assay: Toxicity against human MIAPaCa2 cells xenografted mouse assessed as survival time at 6 mg/kg, ip administered once daily for 5 days a week for 15 days; format: organism-based, MIA PaCa-2; set-up: dose 6 mg/kg, route intraperitoneal; settings: in vivo
[14] = tested on: Mus musculus; assay: Toxicity against human MIAPaCa2 cells xenografted mouse assessed as survival time at 30 mg/kg, ip administered daily once for 5 days a week for 15 days; format: organism-based, MIA PaCa-2; set-up: dose 30 mg/kg, route intraperitoneal; settings: in vivo
[15] = tested on: MIA PaCa-2; assay: Antitumor activity against human MIAPaCa2 cells xenografted mouse assessed as tumor growth inhibition at 30 mg/kg, ip administered once daily for 5 days a week for 15 days; format: functional; settings: MIA PaCa-2, ip, route intraperitoneal
[16] = tested on: Mus musculus; assay: Toxicity against human MIAPaCa2 cells xenografted mouse assessed as survival time at 200 mg/kg, ip administered weekly once for 3 weeks; format: organism-based, MIA PaCa-2; set-up: dose 200 mg/kg, route intraperitoneal; settings: in vivo, 504 h
[17] = tested on: MIA PaCa-2; assay: Antitumor activity against human MIAPaCa2 cells xenografted mouse assessed as tumor growth inhibition at 200 mg/kg, ip administered weekly once for 3 weeks; format: functional; settings: MIA PaCa-2, ip, 504 h, route intraperitoneal

Compound | pIC50 [1] | IC90 [2] [nM] | Ratio IC50 [3] | IC90 [4] [nM] | pIC50 [5] | MTD [6] [mg/kg] | Ratio IC50 [7] | IC90 [8] [nM] | solubility [9] [µg/mL] | IC90 [10] [nM] | remaining at 0.5 h, 5 µM [11] [%] | Ratio IC50 [12] | Survival [13] [days] | Survival [14] [days] | inhibition in vivo at 30 mg/kg [15] [%] | Survival [16] [days] | inhibition in vivo at 200 mg/kg [17] [%]
O=[N+]([O-])c1ccc(COP(=O)(NCCBr)NCCBr)o1 | 4.85 | 60 | 40 | 50 | 7.08 | 20 | 170 | 2000 | 4300 (≈ 9.88 mM) | 2000 | 79 | 30 | 27 |  |  |  | 
Cn1c(COP(=O)(NCCCl)NCCCl)cnc1[N+](=O)[O-] | 4.06 |  |  |  | 6.68 |  | 420 |  |  |  | 90 |  |  |  |  |  | 
Cn1c([N+](=O)[O-])cnc1COP(=O)(NCCBr)NCCBr | 4.34 |  |  |  | 5.24 |  | 8 |  |  |  | 92 |  |  |  |  |  | 
CN(CCCl)P(=O)(OCc1cnc([N+](=O)[O-])n1C)N(C)CCCl | 4.85 |  |  |  | 6.96 |  | 130 |  |  |  | 15 |  |  |  |  |  | 
Cn1c(COP(=O)(N(CCCl)CCCl)N(CCCl)CCCl)cnc1[N+](=O)[O-] | 4.57 |  |  |  | 6.92 |  | 230 |  |  |  | 0 |  |  |  |  |  | 
Cn1c(COP(=O)(NCCBr)NCCBr)cnc1[N+](=O)[O-] [EVOFOSFAMIDE] | 5.29 | 200 | 300 | 100 | 7.72 | 100 | 270 | 40000 | 5900 (≈ 13.1 mM) | 30000 | 92 | 200 |  | 28 | 41 |  | 
Nc1ccn([C@@H]2O[C@H](CO)[C@@H](O)C2(F)F)c(=O)n1 [GEMCITABINE] |  |  |  |  |  |  |  |  |  |  |  |  |  |  |  | 42 | 82
Nc1n[n+]([O-])c2ccccc2[n+]1[O-] [TIRAPAZAMINE] | < 4.00 |  |  |  | 4.96 |  | >9 |  |  |  |  |  |  |  |  |  | 
